In US8835657B2, “Cyclopentanedione compounds and their use as insecticides, acaricides and/or fungicides” (Bayer CropScience AG, priority 2009, dated 2014):
Like-named read-outs stand apart in the source and are kept apart here.

Key:
Format in all cases: in vivo
[1] = test system: mustard beetle larvae (Phaedon cochleariae); experiment: Phaedon cochleariae test (PHAECO spray application); settings: foliar, 168 h, spray on Chinese cabbage leaf disks, after 7 days, read-out: Efficacy % (mortality)
Protocol: Test; (PHAECO Spray Application)
• Solvent: 78.0 parts by weight of acetone • 1.5 parts by weight of dimethylformamide • Emulsifier: 0.5 parts by weight of alkylaryl polyglycolether
To produce a suitable preparation of active compound, 1 part by weight of active compound is mixed with the stated amount of solvent and emulsifier, and the concentrate is diluted with emulsifier-containing water to the desired concentration. Chinese cabbage (Brassica pekinesis) leaf-disks are sprayed with a preparation of the active ingredient of the desired concentration. Once dry, the leaf disks are infested with mustard beetle larvae (Phaedon cochleariae).
After 7 days mortality in % is determined. 100% means that all beetle larvae have been killed and 0% means that none of the beetle larvae have been killed.

[2] = test system: fall armyworm larvae (Spodoptera frugiperda); experiment: Spodoptera frugiperda test (SPODFR spray application); settings: 168 h, spray on maize leaf sections, after 7 days, read-out: Efficacy % (mortality)
From the text: Test (SPODFR Spray Application)
(§1) • Solvent: 78.0 parts by weight acetone • 1.5 parts by weight dimethylformamide • Emulsifier: 0.5 parts by weight alkylarylpolyglycolether
To produce a suitable preparation of the active compound, 1 part by weight of active compound is mixed with the stated amount of solvent and emulsifier, and the concentrate is dilutes with emulsifier-containing water to the desired concentration. Maize (Zea mais) leaf sections are sprayed with a preparation of the active ingredient of the desired concentration. Once dry, the leaf sections are infested with fall armyworm larvae (Spodoptera frugiperda).
After 7 days mortality in % is determined. 100% means that all caterpillars have been killed and 0% means that none of the caterpillars have been killed.

[3] = test system: green peach aphid (Myzus persicae); experiment: Myzus persicae test (MYZUPE spray application); settings: foliar, 144 h, spray on Chinese cabbage leaf disks, after 6 days, read-out: Efficacy % (mortality)
Protocol: Test; (MYZUPE Spray Application)
as §1
(§2) To produce a suitable preparation of active compound, 1 part by weight of active compound is mixed with the stated amount of solvent and emulsifier, and the concentrate is diluted with emulsifier-containing water to the desired concentration. Chinese cabbage (Brassica pekinesis) leaf-disks infected with all instars of the green peach aphid (Myzus persicae), are sprayed with a preparation of the active ingredient at the desired concentration.
After 6 days mortality in % is determined. 100% means that all aphids have been killed; 0% means that none of the aphids have been killed.

[4] = test system: two spotted spidermite (Tetranychus urticae); experiment: Tetranychus urticae test; OP-resistant (TETRUR spray application); settings: 144 h, read-out: Efficacy % (mortality)
Protocol: Test; OP-Resistant (TETRUR Spray Application)
as §1
as §2, with “French beans (Phaseolus vulgaris) which are heavily infested” for “Chinese cabbage (Brassica pekinesis) leaf-disks infected”, “stages” for “instars”, “two spotted spidermite (Tetranychus urticae),” for “green peach aphid (Myzus persicae),”
After 6 days mortality in % is determined. 100% means that all spider mites have been killed and 0% means that none of the spider mites have been killed.

Meloidogyne incognita = experiment: Meloidogyne test (MELGIN); settings: 20 ppm, sand with salad seeds, after 14 days
Protocol: Meloidogyne Test (MELGIN)
• Solvent: 80.0 parts by weight of acetone
To produce a suitable preparation of active compound, 1 part by weight of active compound is mixed with the stated amount of solvent, and the concentrate is diluted with emulsifier-containing water to the desired concentration.
Vessels are filled with sand, a solution of the active ingredient, a suspension containing eggs and larvae of Meloidogyne incognita and salad seeds. The salade seeds germinate and the seedlings grow. Galls develop in the roots.
After 14 days the nematicidal activity is determined on the basis of the percentage of gall formation. 100% means that no galls were found; 0% means that the number of galls found on the roots of the treated plants was equal to that in untreated control plants.

Structure (SMILES) | mortality at 500 g/ha ([1]; 500 g/ha) [%] | mortality at 500 g/ha [2] [%] | mortality at 500 g/ha [3] [%] | mortality at 500 g/ha [4] [%] | mortality at 100 g/ha ([1]; 100 g/ha) [%] | Efficacy % (nematicidal activity, gall formation) (Meloidogyne incognita) [%] | mortality at 500 g/ha ([4]; TETRUR, OP-resistant, 500 g/ha, spray on French beans, after 6 days) [%]
CCOC(=O)OC1=C(c2cc(-c3ccc(Cl)cc3)ccc2C)C(=O)C2C3CCC(O3)C12 (stereo not drawn) [Ex No. P 12] | 83 | 100 | 90 | 100 |  |  | 
Cc1ccc(-c2ccc(Cl)cc2)cc1C1=C(O)[C@H]2[C@@H](C1=O)[C@@H]1CC[C@H]2O1 [Ex No. T 1] |  | 100 | 90 |  | 83 | 100 | 100
